Legend:
ABCB1 = ABCB1 (Homo sapiens, UniProt P08183); test: vanadate-sensitive ATPase stimulation in membrane vesicles; format: biochemical
ABCG2 = molecular target: T1, ABCG2 (Homo sapiens, UniProt Q9UNQ0); test: as above; format: biochemical
T1 sequence (Q9UNQ0 1-655): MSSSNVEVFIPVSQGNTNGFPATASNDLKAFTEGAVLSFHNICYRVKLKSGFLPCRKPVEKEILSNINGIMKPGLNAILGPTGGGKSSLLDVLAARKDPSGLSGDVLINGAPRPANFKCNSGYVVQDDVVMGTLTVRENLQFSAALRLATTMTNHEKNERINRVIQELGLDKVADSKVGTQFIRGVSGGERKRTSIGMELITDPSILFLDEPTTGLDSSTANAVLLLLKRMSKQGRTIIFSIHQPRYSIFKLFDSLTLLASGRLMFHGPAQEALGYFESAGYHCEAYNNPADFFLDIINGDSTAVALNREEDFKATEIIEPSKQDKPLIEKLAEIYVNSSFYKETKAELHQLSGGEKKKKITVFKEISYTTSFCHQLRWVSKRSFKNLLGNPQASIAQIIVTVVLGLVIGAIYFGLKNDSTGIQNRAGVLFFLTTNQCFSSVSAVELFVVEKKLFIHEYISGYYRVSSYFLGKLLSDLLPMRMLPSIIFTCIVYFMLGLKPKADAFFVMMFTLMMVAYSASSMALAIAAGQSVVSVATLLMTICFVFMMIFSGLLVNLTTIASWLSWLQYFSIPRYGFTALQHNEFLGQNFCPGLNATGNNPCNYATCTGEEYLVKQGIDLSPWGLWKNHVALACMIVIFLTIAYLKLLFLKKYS

Chain of ABCB1 (P08183 whole entry): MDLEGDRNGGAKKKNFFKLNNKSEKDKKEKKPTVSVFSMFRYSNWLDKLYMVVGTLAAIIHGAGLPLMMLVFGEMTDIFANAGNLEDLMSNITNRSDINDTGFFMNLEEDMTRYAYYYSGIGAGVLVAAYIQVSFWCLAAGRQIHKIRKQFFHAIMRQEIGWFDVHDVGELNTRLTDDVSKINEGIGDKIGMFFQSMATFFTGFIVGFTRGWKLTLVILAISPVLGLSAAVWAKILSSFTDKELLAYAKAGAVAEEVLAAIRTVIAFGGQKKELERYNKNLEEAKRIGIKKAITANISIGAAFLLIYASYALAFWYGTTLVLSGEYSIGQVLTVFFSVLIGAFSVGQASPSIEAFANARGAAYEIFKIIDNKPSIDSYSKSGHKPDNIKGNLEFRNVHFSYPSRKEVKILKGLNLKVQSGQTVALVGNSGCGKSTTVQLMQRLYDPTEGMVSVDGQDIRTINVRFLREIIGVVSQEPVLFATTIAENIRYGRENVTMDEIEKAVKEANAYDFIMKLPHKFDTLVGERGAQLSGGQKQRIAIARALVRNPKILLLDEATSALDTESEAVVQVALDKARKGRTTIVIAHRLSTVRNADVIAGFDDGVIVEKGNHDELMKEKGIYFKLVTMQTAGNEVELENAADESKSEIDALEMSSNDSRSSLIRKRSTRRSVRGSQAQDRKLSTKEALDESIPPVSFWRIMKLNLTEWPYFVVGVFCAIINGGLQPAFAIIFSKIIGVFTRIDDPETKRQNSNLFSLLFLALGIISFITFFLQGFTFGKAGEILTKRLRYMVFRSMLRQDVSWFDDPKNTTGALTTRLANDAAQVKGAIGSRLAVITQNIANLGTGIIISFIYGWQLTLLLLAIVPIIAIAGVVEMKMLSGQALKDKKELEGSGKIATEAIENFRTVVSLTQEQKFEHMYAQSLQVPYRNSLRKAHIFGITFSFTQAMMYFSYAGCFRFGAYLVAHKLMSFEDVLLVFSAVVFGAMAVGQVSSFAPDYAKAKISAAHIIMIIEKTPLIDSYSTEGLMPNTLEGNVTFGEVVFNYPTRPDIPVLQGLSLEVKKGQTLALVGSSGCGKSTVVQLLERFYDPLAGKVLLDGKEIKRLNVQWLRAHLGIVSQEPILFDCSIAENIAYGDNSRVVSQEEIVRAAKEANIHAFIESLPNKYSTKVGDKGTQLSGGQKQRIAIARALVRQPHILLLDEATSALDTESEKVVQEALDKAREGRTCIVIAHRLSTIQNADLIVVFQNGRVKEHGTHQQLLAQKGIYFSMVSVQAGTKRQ

Q: Which results are given for `COc1cc2c(cc1OC)CN(C(=O)/C=C/c1c(-c3ccccc3)n(C)c3ncccc13)CC2` [SIS3]?
A: EC50 (ABCB1): ~160 nM; EC50 (ABCG2): ~60 nM

Reference: publication PMC6084781 (Cancer letters, 2018)
